How the values were obtained:
[1] = test system: 2,3-diphosphoglycerate phosphatase; conditions: at optimal concentrations; cited from earlier work
human red blood cells = experiment: Determination of 2,3-diphosphoglyceric acid content in human red blood cells; assay type: cell-based
Experimental: 2. Determination of 2,3-Diphosphoglyceric Acid Content in Human Red Blood Cells Blood samples from healthy subjects were collected in heparnized tubes and were centrifuged for 10 minutes at 400 xg. The plasma and buffy layer containing while cells and platelets was removed. The red blood cells were washed three times in Krebs Ringer Bicarbonate buffer supplemented with 2.5 mg/ml bovine serum albumin. The washed cells were suspended in the same buffer in a ratio of 1 cell to 4 buffer v/v. The cell suspension was incubated in siliconized glass beakers in the absence and presence of the test compound at 37° C. in air, supplemented with 5% v/v carbon dioxide. After incubation, 1 ml of the blood sample was mixed with 1 ml of 12% w/v trichloroacetic acid. The mixture was left at 4° C. for 10 minutes and then was clarified by centrifugation. The 2,3-DPG content in the supernatant was quantified using a Sigma assay kit based on the method described by Lowry et al, J. Biol. Chem. 239, 18, 1964. Inhibition of 2,3-diphosphoglyceric acid degredation in human red blood cells was also conducted on compounds of the present invention and is shown in Table II for sulfasalazine.

2,3-DPG phosphatase = molecular target: T1, 2,3-DPG phosphatase (Homo sapiens, UniProt P07738); experiment: 2,3-Diphosphoglycerate phosphatase assay (radiochemical, release of 32P-phosphate from 2,3-DPG); assay type: biochemical; conditions: 110 μM 2,3-DPG, 5 μM phosphoglycolate, pH 7.5, 37° C., 20 minutes
T1 sequence (P07738 1-259): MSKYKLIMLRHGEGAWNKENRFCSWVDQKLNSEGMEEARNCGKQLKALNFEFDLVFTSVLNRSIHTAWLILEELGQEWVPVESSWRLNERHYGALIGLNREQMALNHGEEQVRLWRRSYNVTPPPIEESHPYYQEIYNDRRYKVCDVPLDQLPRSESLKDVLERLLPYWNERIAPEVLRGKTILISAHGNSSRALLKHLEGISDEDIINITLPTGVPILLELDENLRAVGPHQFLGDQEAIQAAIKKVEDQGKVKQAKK
Experimental: 1. 2,3-Diphosphoglycerate Phosphatase Assay
The activity of 2,3-DPG phosphatase was determined radiochemically using a method based on Rose et al., (J. Biol. Chem. 245, 3232-3241, 1970). In this method the activity of the phosphatase is measured by determining the release of inorganic phosphate from the substrate, 2,3-DPG. The test compounds were dissolved in dimethyl sulfoxide at 100 times the final concentration used and then added to the reaction mixture at the beginning of the assay period. In the control experiments equivalent concentration of dimethyl sulfoxide was used.
14 μg of 2,3-DPG phosphatase was incubated in 0.2 ml of N-tris-[Hydroxy-methyl]methyl-2-aminoethane-sulfonic acid [TES], at pH 7.5, containing 110 μM ^32 p-labeled 2,3-DPG (having a specific activity of 70 to 200 μCi/μmol), 5 μM phosphoglycolate and 5 μM mercaptoethanol at 37° C. for 20 minutes in the presence and absence of the test compound. at the end of incubation the reaction was stopped by the addition of 0.1 ml of 15% w/v trichloroacetic acid and the sample was centrifuged (Eppendorf microfuge, Model 5413) in order to remove protein preciptitates. Then 0.2 ml of the supernatant was withdrawn and mixed with 0.1 ml of 8 M sulfuric acid, 0.1 ml of 5% w/v ammonium molybdate and 0.6 ml of water. The mixture then was extracted with 2 ml of isobutanol/benzene (1:1,v/v) and then centrifuged to effect separation of the phases. 1 ml of the organic phase containing the extracted ^32 p-phosphate was counted in a scintillation counter (Beckman, Model LS 8,000) using a program for ^32 p radioactivity. The activity of the enzyme was expressed as number of mole phosphate released per minute.
From the data obtained using the radiochemical method, percent inhibition of 2,3-DPG phosphatase was calculated. […] Representative inhibitory activity is shown for sulfasalazine in Table I.

Row | Structure (SMILES) | enhancement of the activity of 2,3-diphosphoglycerate phosphatase [1] | 2,3-diphosphoglyceric acid content (human red blood cells; sulfasalazine 0.5 mM, incubation period 0 hrs, 37° C.) | 2,3-diphosphoglyceric acid content (human red blood cells; sulfasalazine 0.5 mM, incubation period 3 hrs, 37° C. (control 3.7)) | 2,3-diphosphoglyceric acid content (human red blood cells; sulfasalazine 0.5 mM, incubation period 6 hrs, 37° C. (control 2.4)) | 2,3-diphosphoglyceric acid content (human red blood cells; sulfasalazine 1.0 mM, incubation period 0 hrs, 37° C.) | 2,3-diphosphoglyceric acid content (human red blood cells; sulfasalazine 1.0 mM, incubation period 3 hrs, 37° C. (control 3.7)) | 2,3-diphosphoglyceric acid content (human red blood cells; sulfasalazine 1.0 mM, incubation period 6 hrs, 37° C. (control 2.4)) | inhibition at 20 µM (2,3-DPG phosphatase; sulfasalazine 20 μM) | inhibition at 100 µM (2,3-DPG phosphatase; sulfasalazine 100 μM) | inhibition at 500 µM (2,3-DPG phosphatase; sulfasalazine 500 μM) | inhibition at 1000 µM (2,3-DPG phosphatase; sulfasalazine 1000 μM)
1 | O=C(O)COP(=O)(O)O [2-Phosphoglycolate] | about 1600 fold |  |  |  |  |  |  |  |  |  | 
2 | O=C(O)c1cc(N=Nc2ccc(S(=O)(=O)Nc3ccccn3)cc2)ccc1O [sulfasalazine, 5-[[p-(2-pyridylsulfamoyl)phenyl]azo]salicyclic acid] |  | 4.4 μmole/ml RBC | 3.9 μmole/ml RBC | 3.0 μmole/ml RBC | 4.4 μmole/ml RBC | 4.1 μmole/ml RBC | 3.5 μmole/ml RBC | 23% | 57% | 86% | 90%

Source: patent publication US4849416A, “Treatment of conditions requiring enhanced oxygen availability to mammalian tissues” (Rorer Pharmaceutical Corporation, priority 1988, dated 1989)
